Assay results from patent publication US9193990B2, “Bioluminescent metal ion assay” (priority 2013, dated 2015).
Values belong to the compound of their own block, whether it stands above or below them.

Legend:
apoNanoLuc-CA = assay: bioluminescence emission of NanoLuc-CA with fluorescent sulfonamide and competing sulfonamide (FIG. 4); type: binding, human; settings: 19 nM free Zn, after addition of competing nonfluorescent sulfonamide
Excerpt: In another preferred embodiment the luciferase gene fused to the human carbonic anhydrase II gene is from a variant of the luciferase isolated from the deep sea shrimp Oplophorus gracilirostris (offered commercially by Promega as Nanoluc), and the luciferin is a coelenterazine derivative called furimazine (“Engineered Luciferase Reporter from a Deep Sea Shrimp Utilizing a Novel Imidazopyrazinone Substrate” by Mary P. Hall †, James Unch ‡, Brock F. Binkowski †, Michael P. Valley †, Braeden L. Butler †, Monika G. Wood †, Paul Otto †, Kristopher Zimmerman †, Gediminas Vidugiris †, Thomas Machleidt †, Matthew B. Robers †, Hélène A. Benink †, Christopher T. Eggers †, Michael R. Slater †, Poncho L. Meisenheimer ‡, Dieter H. Klaubert ‡, Frank Fan †, Lance P. Encell *†, and Keith V. Wood † ACS Chem. Biol., 2012, 7 (11), pp 1848-1857DOI: 10.1021/cb3002478). […] An important advantage of this ratiometric approach is that it is essentially independent of time-dependent changes in bioluminescence emission, which are frequently observed. […]

[1] = target: wild type human carbonic anhydrase II (Homo sapiens, UniProt P00918); settings: free zinc ion, read-out: KD for binding to carbonic anhydrase; cited from earlier work
[2] = system: firefly luciferase-holoCA fusion protein
Excerpt: The free zinc concentration can be related to the amount of orange emission, or preferably to the levels of luciferase emission and ultimate acceptor emission, or their ratio, which is proportional to zinc concentration.

specificity of sulfonamide binding (apoNanoLuc-CA): specific
Compound: fluorescein thioureidyl ethyl phenyl sulfonamide [fluorescein sulfonamide]

Compound: zinc ion
Kd [1]: ~4 pM

displacement of LISSAMINE rhodamine sulfonamide from holoCA sulfonamide binding site [2]: completely displaced
Compound: CC(=O)Nc1nnc(S(N)(=O)=O)s1 [acetazolamide]
